Laboratory results taken from patent publication US6680025B2, “Device and method for photoactivation” (Cerus Corporation, priority 1989, dated 2004).

Legend:
[1] = system: PCR product (primer pair SK-38/39 analogs); assay: Post-amplification sterilization with AMT; type: biochemical; conditions: AMT 100 μg/ml, irradiated CE-III; 10^4 to 10^10 copies carried over; 30 cycles
Procedure: A PCR sample is prepared for amplification with the following changes. Instead of AMDMIP, AMT is added prior to amplification at a concentration of 100 μg/ml. Instead of primer pair SK-38/39, the biotinylated analogs, in which biotin has been appended to the 5′ end of one or both primers via an intervening tetraethylenglycol bridge (ester linkage to the biotin), are used. Following 30 cycles of PCR, the reaction vessel is exposed to 300-400 nm light on the CE-III device. Following irradiation, the PCR reaction vessel is opened and the PCR product removed. Free primer is then removed by spinning the PCR reaction mix through a Centricon 100 (Amicon Division, W R Grace & Co., Danvers, Mass.). […] After immobilization, the PCR product is detected with a commercially available biotin detection systems (BluGene Detection System; catalog #8179 SA; BRL). […]
PCR reagents are added and the samples reamplified for 30 cycles, and α-^32P-dCTP is present during the amplification. Following PCR, the reamplified samples are analyzed by denaturing PAGE as described above.
In a third method, a solution of AMT (100 μg/ml) is prepared and irradiated for 15 minutes on the CE-III device. […] The mix is then amplified for 30 cycles in the presence of α-^32P-dCTP, then analyzed by PAGE, as above. […]

tRNA = assay: Photobinding of BIOMIP to tRNA, biotin detection (BluGene); type: binding; conditions: 100 μg/ml, irradiated 30 minutes CE-III; no signal from unirradiated controls
Procedure: This example describes photobinding of ^3H-AMIP, ^3H-AMDMIP and BIOMIP to RNA. A tRNA stock was prepared at a concentration of 765 μg/ml in 1×TE/10 mM NaCl. Appropriate amounts of each compound were prepared in separate reaction vessels such that upon addition of 200 μl of the tRNA solution (153 μg) the final concentration of each compound was 100 μg/ml. […] were used in the experiment; the BIOMIP used was unlabelled. Each reaction vessel was then irradiated for 30 minutes at 25° C. in the CE-III device. Identical unirradiated reaction mixtures were used as controls for each compound. Following irradiation, each mixture was extracted with CHCl3 (4×200 μl ) then precipitated (×2). The pellets were resuspended in 1×TE and the binding levels determined as follows. For the two labelled compounds (^3H-AMDMIP and ^3H-AMIP), the nucleic acid concentration was determined optically and radioactivity measured by scintillation counting of aliquots of the stock solutions. Binding of the compounds was then calculated to be as follows:
To determine if binding of BIOMIP to tRNA has occurred, it was necessary to use a non-radioactive format which detected the biotin moiety on the compound. A commercial kit (“BluGene”; BRL) was used for this purpose. The kit instructions were followed for detection of both the control DNA (supplied with the kit) and BIOMIP treated tRNA. […]

Cc1oc2c(C)c3oc(=O)cc(C)c3cc2c1CN [AMT, 4′-aminomethyl-4,5′,8-trimethylpsoralen]
reamplification of treated PCR product [1]: does not reamplify

5-N-(N,N′-Dimethyl-(6-{biotinamido}-hexanoate)-1,6-hexanediamine])-methyl-isopsoralen [BIOMIP]
binding to tRNA by biotin detection (tRNA): covalently bound to the tRNA
